Several values for one entry are separate records, joined by “and”; a condition that tells them apart may be missing. Identical values can stand only once.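 Following 48 hours of exposure in 96-well plates, responses at five concentrations were used to interpolate endpoints linearly. GI50 = concentration required for 50% inhibition of growth. Definition used: TGI = concentration required for complete inhibition of growth.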
Columns and labels:
Test in all cases: growth of human tumour cells (NCI), 48 h
786-0 renal = tested on: 786-0 renal
A549 NSCLC = tested on: A549 NSCLC
ACHN renal = tested on: ACHN renal
BT-549 breast = tested on: BT-549 breast
CAKI-1 renal = tested on: CAKI-1 renal
COLO 205 colon = tested on: COLO 205 colon
DU-145 prostate = tested on: DU-145 prostate
EKVX NSCLC = tested on: EKVX NSCLC
HCC-2998 colon = tested on: HCC-2998 colon
HCT-116 colon = tested on: HCT-116 colon
HCT-15 colon = tested on: HCT-15 colon
HL-60(TB) leukemia = tested on: HL-60(TB) leukemia
HOP-62 NSCLC = tested on: HOP-62 NSCLC
HOP-92 NSCLC = tested on: HOP-92 NSCLC
HT29 colon = tested on: HT29 colon
IGROV1 ovarian = tested on: IGROV1 ovarian
K-562 leukemia = tested on: K-562 leukemia
KM12 colon = tested on: KM12 colon
LOX IMVI melanoma = tested on: LOX IMVI melanoma
M14 melanoma = tested on: M14 melanoma
MCF7 breast = tested on: MCF7 breast
MDA-MB-231 breast = tested on: MDA-MB-231 breast
MDA-MB-435 = tested on: MDA-MB-435
MOLT-4 leukemia = tested on: MOLT-4 leukemia
NCI-H226 lung = tested on: NCI-H226 lung
NCI-H23 lung = tested on: NCI-H23 lung
NCI-H460 lung = tested on: NCI-H460 lung
NCI-H522 lung = tested on: NCI-H522 lung
NCI/ADR-RES ovarian = tested on: NCI/ADR-RES ovarian
OVCAR-3 ovarian = tested on: OVCAR-3 ovarian
OVCAR-4 ovarian = tested on: OVCAR-4 ovarian
OVCAR-5 ovarian = tested on: OVCAR-5 ovarian
OVCAR-8 ovarian = tested on: OVCAR-8 ovarian
PC-3 prostate = tested on: PC-3 prostate
RPMI-8226 leukemia = tested on: RPMI-8226 leukemia
RXF 393 renal = tested on: RXF 393 renal
SF-268 CNS = tested on: SF-268 CNS
SF-295 CNS = tested on: SF-295 CNS
SF-539 CNS = tested on: SF-539 CNS
SK-MEL-2 melanoma = tested on: SK-MEL-2 melanoma
SK-MEL-28 melanoma = tested on: SK-MEL-28 melanoma
SK-MEL-5 melanoma = tested on: SK-MEL-5 melanoma
SK-OV-3 ovarian = tested on: SK-OV-3 ovarian
SN12C renal = tested on: SN12C renal
SNB-19 CNS = tested on: SNB-19 CNS
SNB-75 CNS = tested on: SNB-75 CNS
SR leukemia = tested on: SR leukemia
SW-620 colon = tested on: SW-620 colon
T-47D breast = tested on: T-47D breast
U251 CNS = tested on: U251 CNS
UACC-257 melanoma = tested on: UACC-257 melanoma
UACC-62 melanoma = tested on: UACC-62 melanoma
UO-31 renal = tested on: UO-31 renal

SMILES: Cc1cc2c(cc1C)[n+](=O)c(C(=O)c1cccs1)c(C(F)(F)F)n2[O-]
- GI50 (786-0 renal): 23 µM and 6.76 µM
- TGI (786-0 renal): 50 µM and 24.5 µM
- GI50 (A549 NSCLC): 3.27 µM and 5.68 µM
- TGI (A549 NSCLC): 50 µM and 21.5 µM
- GI50 (ACHN renal): 7.17 µM and 2.75 µM
- TGI (ACHN renal): 14.9 µM and 17.4 µM
- GI50 (BT-549 breast): 0.565 µM
- TGI (BT-549 breast): 2.53 µM
- GI50 (CAKI-1 renal): 2.32 µM and 2.48 µM
- TGI (CAKI-1 renal): 9.59 µM and 13.2 µM
- GI50 (COLO 205 colon): 5.36 µM and 4.94 µM
- TGI (COLO 205 colon): 41.1 µM and 22.6 µM
- GI50 (DU-145 prostate): 1.05 µM and 2.15 µM
- TGI (DU-145 prostate): 4.12 µM and 6.87 µM
- GI50 (EKVX NSCLC): 0.915 µM and 1.17 µM
- TGI (EKVX NSCLC): 3.22 µM and 4.15 µM
- GI50 (HCC-2998 colon): 6.86 µM and 2.08 µM
- TGI (HCC-2998 colon): 20.9 µM and 5.24 µM
- GI50 (HCT-116 colon): 5.2 µM
- TGI (HCT-116 colon): 26.7 µM
- GI50 (HCT-15 colon): 5.27 µM and 3.56 µM
- TGI (HCT-15 colon): 26 µM and 56 µM
- GI50 (HL-60(TB) leukemia): 1.96 µM and 2.54 µM
- TGI (HL-60(TB) leukemia): 11 µM and 28.8 µM
- GI50 (HOP-62 NSCLC): 14.6 µM and 2.68 µM
- TGI (HOP-62 NSCLC): 50 µM
- GI50 (HOP-92 NSCLC): 1.53 µM and 5.5 µM
- TGI (HOP-92 NSCLC): 10.6 µM and 37.9 µM
- GI50 (HT29 colon): 9.97 µM
- TGI (HT29 colon): 50 µM
- GI50 (IGROV1 ovarian): 0.683 µM
- TGI (IGROV1 ovarian): 5.31 µM
- GI50 (K-562 leukemia): 1.43 µM and 2.81 µM
- TGI (K-562 leukemia): 50 µM and 16.3 µM
- GI50 (KM12 colon): 5.38 µM and 10.3 µM
- TGI (KM12 colon): 12.6 µM and 51.9 µM
- TGI (LOX IMVI melanoma): 12.3 µM and 13.2 µM
- GI50 (M14 melanoma): 14.6 µM and 13.5 µM
- TGI (M14 melanoma): 50 µM and > 100 µM
- GI50 (MCF7 breast): 2.31 µM
- TGI (MCF7 breast): 12.6 µM
- GI50 (MDA-MB-231 breast): 1.1 µM and 1.67 µM
- TGI (MDA-MB-231 breast): 8.54 µM and 8 µM
- GI50 (MDA-MB-435): 4.45 µM and 4.89 µM
- TGI (MDA-MB-435): 16 µM and 21.4 µM
- GI50 (MOLT-4 leukemia): 4.39 µM
- TGI (MOLT-4 leukemia): 50 µM
- GI50 (NCI-H226 lung): 4.06 µM
- TGI (NCI-H226 lung): 50 µM
- GI50 (NCI-H23 lung): 6.25 µM
- TGI (NCI-H23 lung): 19.7 µM
- GI50 (NCI-H460 lung): 1.19 µM and 1.86 µM
- TGI (NCI-H460 lung): 6.35 µM and 16.9 µM
- GI50 (NCI-H522 lung): 2.29 µM and 2.17 µM
- TGI (NCI-H522 lung): 15.5 µM and 8.26 µM
- GI50 (NCI/ADR-RES ovarian): 6.4 µM and 3.28 µM
- TGI (NCI/ADR-RES ovarian): 18.6 µM and 27.2 µM
- GI50 (OVCAR-3 ovarian): 1.44 µM and 0.744 µM
- TGI (OVCAR-3 ovarian): 9.78 µM and 4.34 µM
- GI50 (OVCAR-4 ovarian): 6.44 µM and 3.56 µM
- TGI (OVCAR-4 ovarian): 50 µM and 10.7 µM
- GI50 (OVCAR-5 ovarian): 16.7 µM and 4.47 µM
- TGI (OVCAR-5 ovarian): 50 µM and 17.4 µM
- GI50 (OVCAR-8 ovarian): 1.67 µM and 2.02 µM
- TGI (OVCAR-8 ovarian): 50 µM and 6.61 µM
- GI50 (PC-3 prostate): 0.827 µM and 7.09 µM
- GI50 (RPMI-8226 leukemia): 1.04 µM and 2.84 µM
- TGI (RPMI-8226 leukemia): 8.01 µM and 30.6 µM
- GI50 (RXF 393 renal): 19.7 µM and 9.21 µM
- TGI (RXF 393 renal): 50 µM and 29.3 µM
- GI50 (SF-268 CNS): 1.12 µM and 0.978 µM
- TGI (SF-268 CNS): 4.11 µM and 3.61 µM
- GI50 (SF-295 CNS): 0.603 µM and 2.89 µM
- TGI (SF-295 CNS): 3.34 µM and 12.9 µM
- GI50 (SF-539 CNS): 1.39 µM
- TGI (SF-539 CNS): 7.69 µM
- GI50 (SK-MEL-2 melanoma): 15.8 µM and 8.02 µM
- TGI (SK-MEL-2 melanoma): 50 µM and 26.3 µM
- GI50 (SK-MEL-28 melanoma): 8.83 µM and 12.3 µM
- TGI (SK-MEL-28 melanoma): 28.9 µM and 46.2 µM
- GI50 (SK-MEL-5 melanoma): 0.724 µM and 1.3 µM
- TGI (SK-MEL-5 melanoma): 1.78 µM and 2.8 µM
- GI50 (SK-OV-3 ovarian): 7.95 µM and 10.3 µM
- TGI (SK-OV-3 ovarian): 50 µM and 49 µM
- GI50 (SN12C renal): 1.31 µM
- TGI (SN12C renal): 6.59 µM
- GI50 (SNB-19 CNS): 4.61 µM and 7.76 µM
- TGI (SNB-19 CNS): 50 µM and 52 µM
- GI50 (SNB-75 CNS): 1.02 µM
- TGI (SNB-75 CNS): 18.7 µM
- GI50 (SR leukemia): 0.924 µM
- TGI (SR leukemia): 8.11 µM
- GI50 (SW-620 colon): 2.48 µM and 11.5 µM
- TGI (SW-620 colon): 50 µM and 50.6 µM
- GI50 (T-47D breast): 7.74 µM and 4.47 µM
- TGI (T-47D breast): 50 µM and 29.8 µM
- GI50 (U251 CNS): 6.83 µM and 3.96 µM
- TGI (U251 CNS): 25.5 µM and 75.8 µM
- GI50 (UACC-257 melanoma): 2.4 µM and 2.61 µM
- TGI (UACC-257 melanoma): 38 µM and 6.55 µM
- GI50 (UACC-62 melanoma): 3.02 µM and 6.56 µM
- TGI (UACC-62 melanoma): 12.8 µM and 21.7 µM
- GI50 (UO-31 renal): 1.49 µM and 1.07 µM
- TGI (UO-31 renal): 5.83 µM and 2.34 µM
